Assay results from patent publication US12655174B2, “Adenosine A3 receptor agonists, preparation methods and uses thereof” (ZHEJIANG VIMGREEN PHARMACEUTICALS, LTD., priority 2020, dated 2026).

Legend:
[1] = target: T1, ADORA3 receptor (CHO cells stably expressing ADORA3 receptor) (Homo sapiens, UniProt P0DMS8); test: Effect of compound on intracellular cAMP level by adenosine A3 receptor agonism; type: cell-based; conditions: forskolin-stimulated
T1 construct: expressed in transfected cells
T1 sequence (P0DMS8 1-318): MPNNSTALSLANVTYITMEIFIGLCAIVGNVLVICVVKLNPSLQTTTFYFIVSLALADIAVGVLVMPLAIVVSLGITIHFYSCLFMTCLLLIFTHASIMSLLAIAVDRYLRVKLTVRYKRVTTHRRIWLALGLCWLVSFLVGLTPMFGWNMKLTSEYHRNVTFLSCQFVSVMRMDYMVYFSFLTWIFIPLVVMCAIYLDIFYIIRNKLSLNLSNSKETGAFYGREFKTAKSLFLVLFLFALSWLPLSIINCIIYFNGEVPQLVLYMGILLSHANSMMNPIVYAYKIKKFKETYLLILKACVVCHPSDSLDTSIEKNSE
Outline: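 Agonism read as change in forskolin-stimulated cAMP by TR-FRET competition (Eu-cAMP tracer, ULight anti-cAMP antibody). Compound tested as 10 three-fold dilutions on ADORA3-CHO cells in buffer containing rolipram, incubated at 37 °C. Hill fit of % activation against log concentration gives EC50.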

ADORA3 receptor = target: T2, ADORA3 receptor (Homo sapiens, UniProt P0DMS8); test: Agonistic effect on adenosine A3 receptor by FLIPR assay (calcium flux assay); type: cell-based; conditions: agonist mode
T2 sequence (P0DMS8 1-318): T1 sequence (P0DMS8 1-318)
Procedure: Example 27: Agonistic Effect of Compound on Adenosine A3 Receptor by FLIPR Assay (Calcium Flux Assay)
First Day: Cell Inoculation
• 1) With regard to ADORA3 receptor, cultured cells were used for inoculation: the culture medium was aspirated and the cells were washed twice with 10 mL of DPBS. 2 mL of 0.05% EDTA-trypsin was added and the cells were incubated at 37° C. for 1 minute. Then 10 mL of the culture medium was added to stop the digestion and the cell suspension was transferred to a 50-mL tapered tube. • 2) The 50-mL tapered tube containing the various cells was centrifuged at 300 g for 5 minutes. • 3) A supernatant was aspirated and no cells should be aspirated. • 4) The cell precipitate was resuspended in 6-8 mL of the culture medium, and then 0.5 mL of the cells were taken out for cell counting by using a Vi-cell XR cell viability analyzer. • 5) The cell suspension was diluted to 1×10^6 cells/mL (20 μL of 20,000 cells per well) in the culture medium and the cells were inoculated into a cell plate (384-well Poly-D-lysine protein-coated plate, Greiner-781946). • 6) The plate was placed in a 37° C./5% CO2 incubator for 16-20 hours. Second Day: • 1) Preparation of 2×Fluo-4 Direct™ uptaking dye • a. Preparation of probenecid solution • 1 mL of FLIPR assay buffer was added to 77 mg of probenecid (provided by Fluo-4 Direct™ calcium assay kit) to be prepared into 250 mM of a probenecid solution. The fresh probenecid solution was used daily. • b. 2×(8 μM) Fluo-4 Direct™ loading dye (per 10 mL)
A vial of the Fluo-4 Direct™ crystal was thawed and then 10 mL of the FLTPR analytical buffer was added to the vial. Then 0.2 mL of 250 mM of a probe solution was added to every 10 mL Fluo-4 Direct™ crystal to a final assay concentration of 2.5 mM. The solution was vortexed and stood for >5 min at a dark place. 2×Fluo-4 Direct™ uptaking dye was freshly prepared daily. • 2) Compound preparation • a. Preparation of compound plate: all reference and test compounds were serially diluted 4-fold in 10 points by using an Echo liquid processor and then 900 nL of the diluted compounds were transferred to a compound plate. • b. 30 μL FLIPR analytical buffer was added to the compound plate and the plate was centrifuged at 300 g for 1 minute. • 3) FLIPR analysis • a. With regard to ADORA3 receptor: firstly, the cell plate was taken out from a culture box. The culture medium was then aspirated and 20 μL of the FLIPR analytical buffer was added. The cell plate was placed in an incubator for 45 minutes and at a room temperature for 15 minutes. • b. To run an experimental solution on […], 10 μL of the FLIPR analytical buffer was transferred from the compound plate to a cell plate, and then the fluorescent signal was read. Then 10 μL of a compound solution was transferred from the compound plate to the cell plate and the fluorescence signal was read. “Max−min” was calculated from Reader 91 to an allowed maximum value. • c. With regard to agonist: activation %=(RLU−LC)/(HC−LC)*100, • wherein RLU=relative light unit, allowed maximum signal was 91; HC=average signal of high concentration agonist; and LC=mean signal of DMSO well. • d. Data were fitted to a model “log (agonist) versus response-variable slope” by using GraphPad Prism 5 to determine an EC50 value. • e. […] 2. Test Result

[2] = Pharmacokinetic test of compound in SD rat; type: in vivo; conditions: SD rats, intragastric administration (IG), cassette dosing
Procedure: Example 28: Pharmacokinetic Test of Compound in SD Rat
The animal species used in this experiment were SD rats. There were 3 animals per group. The rats were dosed in cassette format, i.e., multiple (1-6) different compounds were dosed simultaneously to the same group of the SD rats. The vehicle used for the drug was 5% DMSO+5% Solutl+90% ([…] methylcellulose M450), and the administration route was intragastric administration (IG).

Row | SMILES | EC50 [1] | EC50 (ADORA3 receptor) | AUC_D [2]
1 | CNC(=O)[C@H]1O[C@@H](n2cnc3c(NCc4cc(Cl)ccn4)nc(-c4cncc(F)c4)nc32)[C@H](O)[C@@H]1O [compound 183, (2S,3S,4R,5R)-5-(6-((4-chloropyridin-2-yl)methylamino)-2-(5-fluoropyridin-3-yl)-9H-purin-9-yl)-3,4-dihydroxyl-N-methyl-tetrahydrofuran-2-formamide] | < 0.51 nM | 9.07 nM | 947.63 kg·ng·h/mL/mg
2 | CNC(=O)[C@H]1O[C@@H](n2cnc3c(NCc4cccc(C)n4)nc(-c4cncc(F)c4)nc32)[C@H](O)[C@@H]1O [compound 106] | 3.02 nM | 17.6 nM | 521.57 kg·ng·h/mL/mg
3 | CNC(=O)[C@H]1O[C@@H](n2cnc3c(NCc4cc(C)ccn4)nc(-c4cncc(Cl)c4)nc32)[C@H](O)[C@@H]1O [compound 293, (2S,3S,4R,5R)-5-(2-(5-chloropyridin-3-yl)-6-(((4-methylpyridin-2-yl)methyl)amino)-9H-purin-9-yl)-3,4-dihydroxyl-N-methyltetrahydrofuran-2-carboxamide] | < 0.51 nM | 3.27 nM | 2016.46 kg·ng·h/mL/mg
4 | CNC(=O)[C@H]1O[C@@H](n2cnc3c(NCc4cc(C)ccn4)nc(-c4cncc(OC)c4)nc32)[C@H](O)[C@@H]1O [compound 312] | < 0.51 nM | 4.05 nM | 1820.66 kg·ng·h/mL/mg
5 | CNC(=O)[C@H]1O[C@@H](n2cnc3c(NCc4ccccn4)nc(-c4cncc(Cl)c4)nc32)[C@H](O)[C@@H]1O [compound 306, (2S,3S,4R,5S)-5-(2-(5-chloropyridin-3-yl)-6-((pyridin-2-lymethyl)amino)-9H-purin-9-yl)-3,4-dihydroxyl-N-methyltetrahydrofuran-2-carboxamide] | 5.81 nM | 39.2 nM | 659.04 kg·ng·h/mL/mg
6 | [2H]C([2H])([2H])NC(=O)[C@H]1O[C@@H](n2cnc3c(NCc4ccco4)nc(-c4cncc(Cl)c4)nc32)[C@H](O)[C@@H]1O [compound 256, (2S,3S,4R,5R)-5-(2-(5-chloropyridin-3-yl)-6-((furan-2-ylmethyl)amino)-9H-purin-9-yl)-3,4-dihydroxyl-N-(methyl-d3)tetrahydrofuran-2-carboxamide] | 11.6 nM | 98.5 nM | 706.00 kg·ng·h/mL/mg
7 | CNC(=O)[C@H]1OC(n2cnc3c(NCc4ccccn4)nc(-c4cncc(F)c4)nc32)[C@H](O)[C@@H]1O (stereo in doubt) [compound 305, (2S,3S,4R,5S)-5-(2-(5-fluoropyridin-3-yl)-6-((pyridin-2-ylmethyl)amino)-9H-purin-9-yl)-3,4-dihydroxyl-N-methyltetrahydrofuran-2-carboxamide] | 2.73 nM | 10.9 nM | 161.47 kg·ng·h/mL/mg
8 | CNC(=O)[C@H]1O[C@@H](n2cnc3c(NCc4cc(C)ccc4Cl)nc(-c4cncc(Cl)c4)nc32)[C@H](O)[C@@H]1O [compound 177, (2S,3S,4R,5R)-5-(6-(2-chloro-5-methylbenzylamino)-2-(5-chloropyridin-3-yl)-9H-purin-9-yl)-3,4-dihydroxyl-N-methyl-tetrahydrofuran-2-formamide] | 2.08 nM | 70.3 nM | 5247.70 kg·ng·h/mL/mg
9 | CNC(=O)[C@H]1O[C@@H](n2cnc3c(NCc4cccc(Cl)n4)nc(-c4cncc(Cl)c4)nc32)[C@H](O)[C@@H]1O [compound 308] | 3.27 nM | 71.4 nM | 986.00 kg·ng·h/mL/mg
